# From US20180256673A1, “METHODS FOR TREATING FUNGAL INFECTIONS” (priority 2015, published 2018)
# Like-named read-outs stand apart in the source and are kept apart here.
# Tests used:
# Test in all cases: Susceptibility testing of VVC clinical isolates at pH 7 and 4 (CLSI M27-A3)
# [1] = system: C. albicans vaginal isolates; assay type: cell-based, Candida albicans; details: for MIC / MIC90: Candida albicans; for MIC: read-out: MIC; for MIC90: 60 isolates, read-out: MIC90
# [2] = system: C. parapsilosis vaginal isolates; assay type: cell-based, Candida parapsilosis; details: 14 isolates, read-out: MIC90
# [3] = system: C. glabrata vaginal isolates; assay type: cell-based, Candida glabrata; details: for Number of isolates at MIC 0.03 μg/mL / Number of isolates at MIC 0.06 μg/mL / Number of isolates at MIC 0.25 μg/mL / Number of isolates at MIC 0.5 μg/mL / Number of isolates at MIC 1 μg/mL / Number of isolates at MIC 2 μg/mL / Number of isolates at MIC 0.125 μg/mL / Number of isolates at MIC 4 μg/mL / Number of isolates at MIC ≥4 μg/mL: 21 VVC isolates; for MIC90: Nakaseomyces glabratus, 21 isolates, read-out: MIC90
# [4] = system: C. tropicalis vaginal isolates; assay type: cell-based; details: Candida tropicalis, 13 isolates, read-out: MIC90
smiles,measurement,setting,value
"CCC(C)n1ncn(-c2ccc(N3CCN(c4ccc(OCC5COC(Cn6cncn6)(c6ccc(Cl)cc6Cl)O5)cc4)CC3)cc2)c1=O (centres unmarked) [ITR, itraconazole]",Number of isolates at MIC 0.008 μg/mL,"[1]; 60 VVC isolates, 24 h, pH 4",8
same,Number of isolates at MIC 0.03 μg/mL,"[1]; 60 VVC isolates, 24 h, pH 4",13
same,Number of isolates at MIC 0.06 μg/mL,"[1]; 60 VVC isolates, 24 h, pH 4",8
same,Number of isolates at MIC 0.125 μg/mL,"[1]; 60 VVC isolates, 24 h, pH 4",2
same,Number of isolates at MIC 0.25 μg/mL,"[1]; 60 VVC isolates, 24 h, pH 4",2
same,Number of isolates at MIC 0.5 μg/mL,"[1]; 60 VVC isolates, 24 h, pH 4",2
same,Number of isolates at MIC 2 μg/mL,"[1]; 60 VVC isolates, 24 h, pH 4",1
same,Number of isolates at MIC […],"[1]; 60 VVC isolates, 24 h, pH 4",24
same,Number of isolates at MIC 0.008 μg/mL,"[1]; 60 VVC isolates, 24 h, pH 7",21
same,Number of isolates at MIC 0.03 μg/mL,"[1]; 60 VVC isolates, 24 h, pH 7",9
same,Number of isolates at MIC 0.06 μg/mL,"[1]; 60 VVC isolates, 24 h, pH 7",3
same,Number of isolates at MIC 0.25 μg/mL,"[1]; 60 VVC isolates, 24 h, pH 7",2
same,Number of isolates at MIC 0.5 μg/mL,"[1]; 60 VVC isolates, 24 h, pH 7",2
same,Number of isolates at MIC 2 μg/mL,"[1]; 60 VVC isolates, 24 h, pH 7",1
same,Number of isolates at MIC […],"[1]; 60 VVC isolates, 24 h, pH 7",20
same,Number of isolates at MIC 0.03 μg/mL,"[1]; 60 VVC isolates, 48 h, pH 4",23
same,Number of isolates at MIC 0.06 μg/mL,"[1]; 60 VVC isolates, 48 h, pH 4",10
same,Number of isolates at MIC 0.125 μg/mL,"[1]; 60 VVC isolates, 48 h, pH 4",6
same,Number of isolates at MIC 0.25 μg/mL,"[1]; 60 VVC isolates, 48 h, pH 4",3
same,Number of isolates at MIC 0.5 μg/mL,"[1]; 60 VVC isolates, 48 h, pH 4",3
same,Number of isolates at MIC 1 μg/mL,"[1]; 60 VVC isolates, 48 h, pH 4",1
same,Number of isolates at MIC […],"[1]; 60 VVC isolates, 48 h, pH 4",10
same,Number of isolates at MIC ≥4 μg/mL,"[1]; 60 VVC isolates, 48 h, pH 4",4
same,Number of isolates at MIC 0.008 μg/mL,"[1]; 60 VVC isolates, 48 h, pH 7",6
same,Number of isolates at MIC 0.03 μg/mL,"[1]; 60 VVC isolates, 48 h, pH 7",8
same,Number of isolates at MIC 0.125 μg/mL,"[1]; 60 VVC isolates, 48 h, pH 7",6
same,Number of isolates at MIC 0.25 μg/mL,"[1]; 60 VVC isolates, 48 h, pH 7",2
same,Number of isolates at MIC 0.5 μg/mL,"[1]; 60 VVC isolates, 48 h, pH 7",2
same,Number of isolates at MIC 2 μg/mL,"[1]; 60 VVC isolates, 48 h, pH 7",1
same,Number of isolates at MIC […],"[1]; 60 VVC isolates, 48 h, pH 7",34
same,Number of isolates at MIC ≥4 μg/mL,"[1]; 60 VVC isolates, 48 h, pH 7",1
same,MIC,"[1]; 48 h, pH 4, fluconazole-resistant isolate 1, pH 4, 48 h",0.125 µg/mL
same,MIC,"[1]; 48 h, pH 4, fluconazole-resistant isolate 2, pH 4, 48 h",0.25 µg/mL
same,MIC,"[1]; 48 h, pH 4, fluconazole-resistant isolate 3, pH 4, 48 h",0.5 µg/mL
same,MIC,"[1]; 48 h, pH 4, fluconazole-resistant isolate 4, pH 4, 48 h",0.125 µg/mL
same,MIC,"[1]; 48 h, pH 4, fluconazole-resistant isolate 5, pH 4, 48 h",> 4 µg/mL
same,MIC,"[1]; 48 h, pH 4, fluconazole-resistant isolate 6, pH 4, 48 h",> 4 µg/mL
same,MIC,"[1]; 48 h, pH 4, fluconazole-resistant isolate 7, pH 4, 48 h",0.5 µg/mL
same,MIC,"[1]; 48 h, pH 4, fluconazole-resistant isolate 8, pH 4, 48 h",> 4 µg/mL
same,MIC,"[1]; 48 h, pH 4, fluconazole-resistant isolate 9, pH 4, 48 h",> 4 µg/mL
same,MIC,"[1]; 48 h, pH 4, fluconazole-resistant isolate 10, pH 4, 48 h",0.25 µg/mL
same,MIC,"[1]; 48 h, pH 7, fluconazole-resistant isolate 1, pH 7, 48 h",0.125 µg/mL
same,MIC,"[1]; 48 h, pH 7, fluconazole-resistant isolate 2, pH 7, 48 h",0.25 µg/mL
same,MIC,"[1]; 48 h, pH 7, fluconazole-resistant isolate 3, pH 7, 48 h",0.5 µg/mL
same,MIC,"[1]; 48 h, pH 7, fluconazole-resistant isolate 4, pH 7, 48 h",0.03 µg/mL
same,MIC,"[1]; 48 h, pH 7, fluconazole-resistant isolate 5, pH 7, 48 h",0.25 µg/mL
same,MIC,"[1]; 48 h, pH 7, fluconazole-resistant isolate 6, pH 7, 48 h",0.016 µg/mL
same,MIC,"[1]; 48 h, pH 7, fluconazole-resistant isolate 7, pH 7, 48 h",0.5 µg/mL
same,MIC,"[1]; 48 h, pH 7, fluconazole-resistant isolate 8, pH 7, 48 h",2 µg/mL
same,MIC,"[1]; 48 h, pH 7, fluconazole-resistant isolate 9, pH 7, 48 h",> 4 µg/mL
same,MIC,"[1]; 48 h, pH 7, fluconazole-resistant isolate 10, pH 7, 48 h",0.125 µg/mL
same,MIC90,"[1]; pH 4, 24 h",0.125 µg/mL
same,MIC90,"[1]; pH 4, 48 h",5 µg/mL
same,MIC90,"[1]; pH 7, 24 h",0.06 µg/mL
same,MIC90,"[1]; pH 7, 48 h",0.125 µg/mL
same,MIC90,"[2]; pH 4, 24 h",0.016 µg/mL
same,MIC90,"[2]; pH 4, 48 h",0.125 µg/mL
same,MIC90,"[2]; pH 7, 24 h",0.03 µg/mL
same,MIC90,"[2]; pH 7, 48 h",0.125 µg/mL
same,Number of isolates at MIC 0.03 μg/mL,"[3]; 24 h, pH 4",1
same,Number of isolates at MIC 0.06 μg/mL,"[3]; 24 h, pH 4",2
same,Number of isolates at MIC 0.25 μg/mL,"[3]; 24 h, pH 4",2
same,Number of isolates at MIC 0.5 μg/mL,"[3]; 24 h, pH 4",9
same,Number of isolates at MIC 1 μg/mL,"[3]; 24 h, pH 4",6
same,Number of isolates at MIC 2 μg/mL,"[3]; 24 h, pH 4",1
same,Number of isolates at MIC 0.03 μg/mL,"[3]; 24 h, pH 7",4
same,Number of isolates at MIC 0.06 μg/mL,"[3]; 24 h, pH 7",2
same,Number of isolates at MIC 0.125 μg/mL,"[3]; 24 h, pH 7",6
same,Number of isolates at MIC 0.25 μg/mL,"[3]; 24 h, pH 7",3
same,Number of isolates at MIC 0.5 μg/mL,"[3]; 24 h, pH 7",3
same,Number of isolates at MIC 1 μg/mL,"[3]; 24 h, pH 7",2
same,Number of isolates at MIC 4 μg/mL,"[3]; 24 h, pH 7",1
same,Number of isolates at MIC 0.03 μg/mL,"[3]; 48 h, pH 4",1
same,Number of isolates at MIC 0.06 μg/mL,"[3]; 48 h, pH 4",1
same,Number of isolates at MIC 0.125 μg/mL,"[3]; 48 h, pH 4",1
same,Number of isolates at MIC 0.5 μg/mL,"[3]; 48 h, pH 4",2
same,Number of isolates at MIC 1 μg/mL,"[3]; 48 h, pH 4",4
same,Number of isolates at MIC 2 μg/mL,"[3]; 48 h, pH 4",2
same,Number of isolates at MIC 4 μg/mL,"[3]; 48 h, pH 4",2
same,Number of isolates at MIC ≥4 μg/mL,"[3]; 48 h, pH 4",8
same,Number of isolates at MIC 0.03 μg/mL,"[3]; 48 h, pH 7",1
same,Number of isolates at MIC 0.06 μg/mL,"[3]; 48 h, pH 7",1
same,Number of isolates at MIC 0.125 μg/mL,"[3]; 48 h, pH 7",1
same,Number of isolates at MIC 0.25 μg/mL,"[3]; 48 h, pH 7",5
same,Number of isolates at MIC 0.5 μg/mL,"[3]; 48 h, pH 7",8
same,Number of isolates at MIC 2 μg/mL,"[3]; 48 h, pH 7",2
same,Number of isolates at MIC ≥4 μg/mL,"[3]; 48 h, pH 7",3
same,MIC90,"[3]; pH 4, 24 h",1 µg/mL
same,MIC90,"[3]; pH 4, 48 h",> 4 µg/mL
same,MIC90,"[3]; pH 7, 24 h",1 µg/mL
same,MIC90,"[3]; pH 7, 48 h",> 4 µg/mL
same,MIC90,"[4]; pH 4, 24 h",0.125 µg/mL
same,MIC90,"[4]; pH 4, 48 h",0.5 µg/mL
same,MIC90,"[4]; pH 7, 24 h",0.125 µg/mL
same,MIC90,"[4]; pH 7, 48 h",0.5 µg/mL
